Data reported in patent US11091472B2, “PI-kinase inhibitors with anti-infective activity” (The Board of Trustees of the Leland Stanford Junior …, priority 2016, dated 2021).

How the values were obtained:
PI3K p110g = PI3K p110g (Homo sapiens (Human), UniProt P48736); experiment: PI3K p110g kinase assay; format: biochemical; details: kinase activity
PI4KIIIB = PI4KIIIB (Bos taurus (Bovine), UniProt O02810); experiment: PI4KIIIβ kinase assay (immunoprecipitated HA-tagged enzyme, [γ-32P]-ATP); format: biochemical; details: kinase activity
EV71 = EV71 antiviral assay; format: cell-based; details: Enterovirus A, Table 5
HRV = experiment: Rhinovirus antiviral assay; format: cell-based; details: Human rhinovirus sp.; Table 5

PI4KIIIB, sequence (O02810 whole entry): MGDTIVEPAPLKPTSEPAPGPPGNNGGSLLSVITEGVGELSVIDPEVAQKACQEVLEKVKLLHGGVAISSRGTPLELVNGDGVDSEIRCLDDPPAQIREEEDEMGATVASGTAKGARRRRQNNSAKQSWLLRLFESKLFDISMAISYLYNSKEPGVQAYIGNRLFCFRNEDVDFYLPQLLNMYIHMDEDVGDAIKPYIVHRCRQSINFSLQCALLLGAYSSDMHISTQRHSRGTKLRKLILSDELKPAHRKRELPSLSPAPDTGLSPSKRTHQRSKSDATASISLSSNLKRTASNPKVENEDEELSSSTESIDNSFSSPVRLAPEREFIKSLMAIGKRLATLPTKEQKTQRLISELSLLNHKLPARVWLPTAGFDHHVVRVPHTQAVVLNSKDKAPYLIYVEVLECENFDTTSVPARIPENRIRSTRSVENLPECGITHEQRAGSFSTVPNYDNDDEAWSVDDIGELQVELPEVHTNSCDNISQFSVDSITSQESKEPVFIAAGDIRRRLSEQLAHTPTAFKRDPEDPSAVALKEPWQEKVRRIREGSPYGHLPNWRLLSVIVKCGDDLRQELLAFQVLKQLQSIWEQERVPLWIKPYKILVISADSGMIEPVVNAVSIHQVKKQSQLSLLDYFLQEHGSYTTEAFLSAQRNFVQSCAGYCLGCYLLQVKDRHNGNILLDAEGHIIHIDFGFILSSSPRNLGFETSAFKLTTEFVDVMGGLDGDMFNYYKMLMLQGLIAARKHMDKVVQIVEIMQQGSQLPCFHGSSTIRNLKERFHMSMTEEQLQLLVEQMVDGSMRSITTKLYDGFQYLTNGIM
PI3K p110g, sequence (P48736 whole entry): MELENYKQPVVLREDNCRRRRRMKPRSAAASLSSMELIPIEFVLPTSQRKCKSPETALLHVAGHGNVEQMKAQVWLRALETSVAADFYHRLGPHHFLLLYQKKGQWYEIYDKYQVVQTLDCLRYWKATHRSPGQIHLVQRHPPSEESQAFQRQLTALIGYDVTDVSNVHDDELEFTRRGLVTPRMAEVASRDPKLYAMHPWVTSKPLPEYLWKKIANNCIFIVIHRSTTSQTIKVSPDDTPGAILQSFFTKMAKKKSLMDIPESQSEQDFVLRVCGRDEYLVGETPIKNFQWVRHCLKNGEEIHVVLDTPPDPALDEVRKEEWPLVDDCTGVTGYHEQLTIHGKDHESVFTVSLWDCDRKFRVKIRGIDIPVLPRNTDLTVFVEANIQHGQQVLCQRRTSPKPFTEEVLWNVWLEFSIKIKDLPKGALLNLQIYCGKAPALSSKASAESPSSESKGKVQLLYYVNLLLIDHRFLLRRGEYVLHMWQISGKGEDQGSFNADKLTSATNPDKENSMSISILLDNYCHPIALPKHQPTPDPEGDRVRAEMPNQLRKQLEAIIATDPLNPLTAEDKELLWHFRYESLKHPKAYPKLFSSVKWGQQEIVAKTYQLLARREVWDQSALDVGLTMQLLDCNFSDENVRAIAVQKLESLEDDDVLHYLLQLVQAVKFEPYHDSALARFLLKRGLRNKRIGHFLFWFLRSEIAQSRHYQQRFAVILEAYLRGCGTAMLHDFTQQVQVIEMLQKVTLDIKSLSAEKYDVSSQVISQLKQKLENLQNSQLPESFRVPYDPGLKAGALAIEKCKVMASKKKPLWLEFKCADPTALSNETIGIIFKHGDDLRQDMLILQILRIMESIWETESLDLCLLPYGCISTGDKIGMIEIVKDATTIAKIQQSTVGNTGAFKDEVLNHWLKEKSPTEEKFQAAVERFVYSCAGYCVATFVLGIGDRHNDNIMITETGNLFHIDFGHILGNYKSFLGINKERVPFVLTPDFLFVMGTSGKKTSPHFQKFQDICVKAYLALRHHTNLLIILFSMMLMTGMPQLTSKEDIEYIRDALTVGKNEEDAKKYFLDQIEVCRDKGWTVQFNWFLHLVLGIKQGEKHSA

For `COc1ccc(-c2sc(NCCC3CCCCC3)nc2C)cc1S(=O)(=O)NC1CCC(O)C1` (stereo not drawn) [Compound S-214], the IC50 (PI3K p110g) was > 10 µM.
In the case of `COc1ccc(-c2sc(NC(C)(C)C)nc2C)cc1S(=O)(=O)NC1CCNCC1` [Compound S-219], the IC50 (PI4KIIIB) is reported as < 0.1 µM.
With `COc1ccc(-c2sc(NCC(C)C)nc2C)cc1S(=O)(=O)N[C@H]1CC[C@H](O)CC1` [Compound S-221] the IC50 (PI4KIIIB) was < 0.1 µM.
In the case of `COc1ccc(-c2sc(NCC(C)C)nc2C)cc1S(=O)(=O)N[C@H]1CC[C@@H](O)CC1` [Compound S-222], the IC50 (PI4KIIIB) is reported as < 0.1 µM.
For `COc1ccc(-c2sc(NC(=O)CC3CCOCC3)nc2C)cc1S(=O)(=O)Nc1cccc(C)c1` [Compound S-226], the IC50 (PI4KIIIB) was < 0.1 µM.
`COc1ccc(-c2sc(NC(=O)CC3CCOCC3)nc2C)cc1S(=O)(=O)Nc1ccccc1F` [Compound S-230] was tested, and the IC50 (PI4KIIIB) was < 0.1 µM.
`COc1ncc(-c2sc(NC(=O)CC3CCOCC3)nc2C)cc1S(=O)(=O)Nc1ccc(F)cc1F` [Compound S-258] showed an IC50 (PI4KIIIB) of 1 to 10 µM.
In the case of `COc1ccc(-c2sc(NC(C)C3CCOCC3)nc2C)cc1S(=O)(=O)Nc1ccccc1C` (stereo not drawn) [Compound S-315], the EC50 (EV71) is reported as 0.001 to 0.1 µM and the EC50 (HRV) is reported as 0.001 to 0.1 µM.
With `COc1ccc(-c2sc(NC(C)C3CCOCC3)nc2C)cc1S(=O)(=O)Nc1ccc(O)cc1C` (stereo not drawn) [Compound S-317] the EC50 (EV71) was 0.001 to 0.1 µM and the EC50 (HRV) was 0.001 to 0.1 µM.
For `COc1ccc(-c2sc(NC(C)C3CCOCC3)nc2C)cc1S(=O)(=O)Nc1ccc(O)cc1Cl` (stereo not drawn) [Compound S-318], the EC50 (EV71) was < 0.001 µM and the EC50 (HRV) was 0.001 to 0.1 µM.
With `COc1ccc(-c2sc(NC(C)C3CCOCC3)nc2C)cc1S(=O)(=O)Nc1ccc(O)cc1` (stereo not drawn) [Compound S-319] the EC50 (EV71) was 0.001 to 0.1 µM and the EC50 (HRV) was 0.001 to 0.1 µM.
`COc1ccc(-c2sc(NC(C)C3CCOCC3)nc2C)cc1S(=O)(=O)Nc1cccc(O)c1` (stereo not drawn) [Compound S-320] was tested, and the EC50 (EV71) was 0.001 to 0.1 µM and the EC50 (HRV) was 0.001 to 0.1 µM.
Compound `COc1ccc(-c2sc(NC(C)C3CCOCC3)nc2C)cc1S(=O)(=O)Nc1c(F)cccc1F` (stereo not drawn) [Compound S-321] has an EC50 (EV71) of 0.001 to 0.1 µM and an EC50 (HRV) of 0.001 to 0.1 µM.
`COc1ccc(-c2sc(NC(C)C3CCOCC3)nc2C)cc1S(=O)(=O)Nc1c(F)cccc1Cl` (stereo not drawn) [Compound S-322] showed an EC50 (EV71) of 0.001 to 0.1 µM and an EC50 (HRV) of 0.001 to 0.1 µM.
With `COc1ccc(-c2sc(NC(C)C3CCOCC3)nc2C)cc1S(=O)(=O)Nc1c(C)cccc1F` (stereo not drawn) [Compound S-323] the EC50 (EV71) was < 0.001 µM and the EC50 (HRV) was < 0.001 µM.
In the case of `COC(=O)c1ccc(NS(=O)(=O)c2cc(-c3sc(NC(C)C4CCOCC4)nc3C)ccc2OC)cc1` (stereo not drawn) [Compound S-324], the EC50 (EV71) is reported as 0.001 to 0.1 µM and the EC50 (HRV) is reported as 0.001 to 0.1 µM.
With `COc1ccc(-c2sc(NC(C)C3CCOCC3)nc2C)cc1S(=O)(=O)Nc1ccc(C(=O)O)cc1` (stereo not drawn) [Compound S-325] the EC50 (EV71) was 1 to 10 µM and the EC50 (HRV) was 1 to 10 µM.
`COc1ccc(-c2sc(NC(C)C3CCOCC3)nc2C)cc1S(=O)(=O)NC1CCNCC1` (stereo not drawn) [Compound S-326] showed an EC50 (EV71) of 0.001 to 0.1 µM and an EC50 (HRV) of 0.1 to 1 µM.
With `COc1ccc(-c2sc(NC(C)C3CCOCC3)nc2C)cc1S(=O)(=O)NC1CCC(OC(C)=O)CC1` (stereo not drawn) [Compound S-327] the EC50 (EV71) was 0.001 to 0.1 µM and the EC50 (HRV) was 0.001 to 0.1 µM.
Work on `COc1ccc(-c2sc(NC(C)C3CCOCC3)nc2C)cc1S(=O)(=O)Nc1ncccc1C` (stereo not drawn) [Compound S-329] yielded an EC50 (EV71) of 0.001 to 0.1 µM and an EC50 (HRV) of 0.001 to 0.1 µM.
`COc1ccc(-c2sc(NC(C)C3CCOCC3)nc2C)cc1S(=O)(=O)Nc1ncccc1F` (stereo not drawn) [Compound S-330] gave an EC50 (EV71) of 0.1 to 1 µM and an EC50 (HRV) of 1 to 10 µM.
Compound `COc1ccc(-c2sc(NC(C)C3CCOCC3)nc2C)cc1S(=O)(=O)Nc1cccnc1C` (stereo not drawn) [Compound S-331] has an EC50 (EV71) of 0.001 to 0.1 µM and an EC50 (HRV) of 0.001 to 0.1 µM.
With `COc1ccc(-c2sc(NC(C)C3CCOCC3)nc2C)cc1S(=O)(=O)Nc1c(F)cncc1F` (stereo not drawn) [Compound S-333] the EC50 (EV71) was 0.1 to 1 µM and the EC50 (HRV) was 0.1 to 1 µM.
For `COc1ncc(-c2sc(NC(C)C3CCOCC3)nc2C)cc1S(=O)(=O)Nc1ccc(O)cc1F` (stereo not drawn) [Compound S-334], the EC50 (EV71) was 0.001 to 0.1 µM and the EC50 (HRV) was 0.001 to 0.1 µM.
`COc1ncc(-c2sc(NC(C)C3CCOCC3)nc2C)cc1S(=O)(=O)Nc1ccccc1C` (stereo not drawn) [Compound S-335] gave an EC50 (EV71) of 0.001 to 0.1 µM and an EC50 (HRV) of 0.001 to 0.1 µM.
`COc1ncc(-c2sc(NC(C)C3CCOCC3)nc2C)cc1S(=O)(=O)Nc1ccc(F)cc1F` (stereo not drawn) [Compound S-336] showed an EC50 (EV71) of 0.001 to 0.1 µM and an EC50 (HRV) of 0.001 to 0.1 µM.
`COc1ncc(-c2sc(NC(C)C3CCOCC3)nc2C)cc1S(=O)(=O)Nc1ccc(F)cc1Cl` (stereo not drawn) [Compound S-337] gave an EC50 (EV71) of 0.001 to 0.1 µM and an EC50 (HRV) of 0.1 to 1 µM.
`COc1ncc(-c2sc(NC(C)C3CCOCC3)nc2C)cc1S(=O)(=O)Nc1ccc(F)cc1C` (stereo not drawn) [Compound S-338] was tested, and the EC50 (EV71) was 0.001 to 0.1 µM and the EC50 (HRV) was 0.001 to 0.1 µM.
With `COc1ncc(-c2sc(NC(C)C3CCOCC3)nc2C)cc1S(=O)(=O)Nc1ccccc1F` (stereo not drawn) [Compound S-339] the EC50 (EV71) was 0.001 to 0.1 µM and the EC50 (HRV) was 0.001 to 0.1 µM.
`COc1ncc(-c2sc(NC(C)C3CCOCC3)nc2C)cc1S(=O)(=O)Nc1ccc(O)cc1C` (stereo not drawn) [Compound S-340] gave an EC50 (EV71) of 0.001 to 0.1 µM and an EC50 (HRV) of 0.001 to 0.1 µM.
With `COc1ncc(-c2sc(NC(C)C3CCOCC3)nc2C)cc1S(=O)(=O)Nc1ccccc1Cl` (stereo not drawn) [Compound S-341] the EC50 (EV71) was 0.001 to 0.1 µM and the EC50 (HRV) was 0.001 to 0.1 µM.
`COc1ncc(-c2sc(NC(C)C3CCOCC3)nc2C)cc1S(=O)(=O)Nc1ccc(O)cc1Cl` (stereo not drawn) [Compound S-375] showed an EC50 (EV71) of 0.001 to 0.1 µM and an EC50 (HRV) of 0.001 to 0.1 µM.
